Data from patent publication US20140163073A1, “Small Molecule Inhibitors of P-type ATPases” (priority 2012, published 2014).
In brackets after ≈: the same amount, converted by molar mass. Entries after “also recorded” stand apart in the source; their conditions may differ. Read-outs that look alike come from different tables or passages of the source.

Key:
ATP7A = biological target: T1, ATP7A (Mus musculus, UniProt Q64430); assay: Cu+2-stimulated ATP7A trafficking, co-localization assay; type: cell-based; settings: B16F10 cells
T1 construct: endogenous in cells; host or cells: B16F10 mouse melanoma cells
T1 sequence (Q64430 1-1491): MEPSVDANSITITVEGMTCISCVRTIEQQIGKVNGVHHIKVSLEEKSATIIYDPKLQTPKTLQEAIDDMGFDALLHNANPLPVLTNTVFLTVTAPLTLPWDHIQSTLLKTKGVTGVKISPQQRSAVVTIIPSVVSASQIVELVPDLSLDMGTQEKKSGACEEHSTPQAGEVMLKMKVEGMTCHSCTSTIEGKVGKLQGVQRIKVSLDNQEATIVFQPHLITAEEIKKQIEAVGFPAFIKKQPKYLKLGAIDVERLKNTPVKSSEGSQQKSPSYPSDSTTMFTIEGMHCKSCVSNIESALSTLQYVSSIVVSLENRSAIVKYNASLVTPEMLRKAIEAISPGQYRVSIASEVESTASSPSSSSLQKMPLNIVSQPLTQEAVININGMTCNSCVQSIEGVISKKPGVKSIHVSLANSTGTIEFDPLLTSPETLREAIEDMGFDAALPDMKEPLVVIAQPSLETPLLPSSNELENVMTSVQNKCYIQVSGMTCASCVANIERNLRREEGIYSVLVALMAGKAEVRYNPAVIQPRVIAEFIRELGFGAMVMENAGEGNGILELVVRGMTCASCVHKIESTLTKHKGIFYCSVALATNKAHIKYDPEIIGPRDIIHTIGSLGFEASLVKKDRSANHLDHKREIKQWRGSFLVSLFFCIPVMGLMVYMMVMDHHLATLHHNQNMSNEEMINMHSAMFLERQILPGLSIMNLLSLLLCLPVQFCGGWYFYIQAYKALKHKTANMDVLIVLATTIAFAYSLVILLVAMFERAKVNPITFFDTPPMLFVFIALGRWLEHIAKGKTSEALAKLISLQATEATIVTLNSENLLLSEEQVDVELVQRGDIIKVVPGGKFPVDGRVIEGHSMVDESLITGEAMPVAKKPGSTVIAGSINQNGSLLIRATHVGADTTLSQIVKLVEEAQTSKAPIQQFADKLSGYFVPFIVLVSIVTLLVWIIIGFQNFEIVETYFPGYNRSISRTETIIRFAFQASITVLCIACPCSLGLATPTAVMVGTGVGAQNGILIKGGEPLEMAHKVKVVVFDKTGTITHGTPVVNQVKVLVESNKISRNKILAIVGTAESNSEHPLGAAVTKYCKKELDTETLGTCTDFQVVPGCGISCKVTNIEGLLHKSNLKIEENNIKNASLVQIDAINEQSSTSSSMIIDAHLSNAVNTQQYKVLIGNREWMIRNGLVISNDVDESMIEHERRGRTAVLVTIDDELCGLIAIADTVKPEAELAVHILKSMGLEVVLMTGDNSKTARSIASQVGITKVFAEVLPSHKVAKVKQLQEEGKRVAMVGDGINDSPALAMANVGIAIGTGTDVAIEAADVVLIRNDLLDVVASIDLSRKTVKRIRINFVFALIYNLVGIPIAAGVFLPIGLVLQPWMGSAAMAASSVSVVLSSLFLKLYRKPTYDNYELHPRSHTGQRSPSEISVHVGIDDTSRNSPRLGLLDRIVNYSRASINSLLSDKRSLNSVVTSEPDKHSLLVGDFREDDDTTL
Experimental: Cells were incubated for 16 hours with […] omeprazole or the vehicle (DMSO) and then treated with Cu+2, or not treated, to determine if omeprazole could inhibit Cu+2-stimulated (CuCl2) ATP7A trafficking. […] ATP7A is seen as green following immunofluorescence protocols previously described (Petris et al., 1999), the Golgi stained red, and the nucleus stained blue. […]
This is consistent with the idea that omeprazole is metabolized to generate an inhibitory metabolite (such as hydroxy-omeprazole or perhaps the sulfonated metabolite) which then interacts with newly synthesized tyrosinase. This finding also is consistent with the hypothesis that omeprazole inhibits metallation of newly synthesized tyrosinase via ATP7A, rather than functioning as a direct inhibitor of tyrosinase per se; that is, a 72 hour incubation in omeprazole appears to be required so that preexisting tyrosinase can be turned over, allowing the inhibitory effect of omeprazole to be detected on newly synthesized tyrosinase.

melanocytes = assay: Inhibition of melanogenesis / pigment development in cultured melanocytes; type: cell-based
[1] = system: tyrosinase, MITF, TRP-2, Pme117 mRNA; assay: mRNA levels of melanogenesis related proteins by RT-PCR in B16F10 mouse melanoma cells; type: cell-based
Text: The inventors next examined the effect of omeprazole on tyrosinase, the principal, rate-limiting enzyme in melanin synthesis.

[2] = system: normal human epidermal melanocytes; assay: Melanogenesis and melanin content in normal human epidermal melanocytes; type: cell-based
Text: (§1) PPIs had been known to function in the parietal cells to block the production of stomach acid by binding to at least one cysteine residue of the gastric proton pump, ATP4A, to thus effect long-lasting, semi-irreversible inactivation of the ATP4A. In order to bind to the ATPase, the PPI must be in its active form, and the PPI requires an acidic environment to undergo rearrangement to its active form.

[3] = system: reconstructed human skin model; assay: Reconstructed human skin model; type: cell-based
Text: as §1

[4] = pH below 0.8; cited from earlier work

Compound | inhibition of Cu+2-stimulated ATP7A re-localization (ATP7A; 100 μM for 16 hours, then 10 μM Cu+2 for 3 hours) | ATP7A trafficking without Cu+2 stimulation (ATP7A; SCH-28080, absence of Cu+2) | inhibition of melanogenesis (melanocytes) | inhibition of melanogenesis (melanocytes; listed as SCH-20808) | tyrosinase mRNA levels [1] | cytotoxicity [2] | EC50 ([2]; Melanocyte, read-out: EC50 of melanogenesis inhibition) | concentration that inhibits melanogenesis (melanocytes; cultured melanocytes) | concentration at which effective [3] | reorganization (stability) [4]
Cc1nc2c(OCc3ccccc3)cccn2c1CC#N [SCH-28080] | inhibition; also recorded: very potent inhibitor | no effect on ATP7A trafficking | also inhibited melanogenesis | strongly inhibited melanogenesis | – | – | – | – | – | –
COc1ccc2[nH]c([S+]([O-])Cc3ncc(C)c(OC)c3C)nc2c1 (centres unmarked) [omeprazole, 5- or 6-methoxy-2-{[(4-methoxy-3,5-dimethylpyridin-2-yl)methyl]sulfinyl}-1H-benzimidazole] | – | – | – | – | no effect | low cytotoxicity | 15 µg/mL (≈ 43.4 µM) | 5 to 50 µg/mL | 50 µg/mL | quickly reorganizes into the sulfonamide analog
C[C@@H]1O[C@@H](O[C@H]2C[C@@H](O)[C@]3(CO)[C@H]4[C@H](O)C[C@]5(C)[C@@H](C6=CC(=O)OC6)CC[C@]5(O)[C@@H]4CC[C@]3(O)C2)[C@H](O)[C@H](O)[C@H]1O [ouabain] | – | – | does not inhibit melanogenesis | – | – | – | – | – | – | –
